# Columns and labels:
# [1] = test system: breast cancer 4T1 cells; assay: Short-term tumor inhibition in 4T1 tumor-bearing BALB/c mice (Example 9, Table 14); assay type: in vivo; conditions: dosed twice, 7th day after final administration; for tumor inhibition rate rA: series A: intravenous injection; for tumor inhibition rate rB: series B: intratumoral injection
# Text: (§1) The method for determining the effect of combined drug administration in animal experiments was Burgi method (Burgi Y. Pharmacology; Drug actions and reactions. Cancerres. 1978, 38(2), 284-285). The Burgi method was modified by Zhengjun JIN (Zhengjun JIN, Equal probability and curve and “Q50”, Journal of the Second Shanghai Medical College; 1981, 1, 75-86) with q calculated as: q=EA+B/(EA+EB−EA×EB). In the following examples of the present invention, the combinational pharmaceutical efficacies (drug efficacies) of drug A and drug B co-administration was determined by ratio q of actual pharmaceutical efficacy (drug efficacy)/theoretical pharmaceutical efficacy (drug efficacy) according to Zhengjun JIN method, as follows.
# BALB/c mice were used as experimental subjects, and breast cancer 4T1 cells were used as modeling cells. 0.5×10^6 cells/mouse were injected into the right axilla subcutaneously for transplantation tumor modeling, and the average tumor volume of successfully modeled nude mice was 160.1 mm^3. The model animals were randomly divided into 21 groups, and the drugs were administered by intravenous injection (series A) and intratumoral injection (series B) according to the drugs and doses in Table 14, respectively. All the drugs administered were aqueous liquids, which were formulated according to the method of Example 1. Each group was dosed twice. On the 7th day after final administration, the animals were euthanized, and the tumor tissues were taken out after dissection to determine the tumor weight, and the tumor inhibition rates rA and rB were calculated relative to the corresponding negative control groups in series A and series B.
# [2] = test system: breast cancer 4T1 cells; assay: Short- and medium/long-term relative tumor proliferation rate in 4T1 tumor-bearing BALB/c mice (Example 10, Table 16); assay type: in vivo; conditions: intratumoral injection, dosed twice at interval of 7 days, 100 μl/mouse/time; for relative tumor proliferation rate R7 d: day 7 after last dose; for relative tumor proliferation rate R21 d: day 21 after last dose
# Text: V=0.5×a×b^2, wherein a and b represent the length and width of the local lesion, respectively; Volume of the local lesion (e.g. tumor):
# Local lesion (e.g., tumor) proliferation rate (R)=TV/CV×100, wherein TV and CV are the local lesion volumes in the study group and negative control group, respectively;
# as §1
# BALB/c mice were used as experimental subjects, and breast cancer 4T1 cells were used as modeling cells. 0.5×10^6 cells/mouse were injected into the right axilla subcutaneously for transplantation tumor modeling, and the average tumor volume of successfully modeled nude mice was 107.4 mm^3. The model animals were randomly divided into 17 groups.
# The drugs, formulated according to the method of Example 1, were administered according to Table 16. Each group was dosed twice with an interval of 7 days, and the injection volumes were 300 μl/mouse/time for groups 13 and 14, 100 μl/mouse/time for other groups. The drugs were administered by subaxillary administration of the right forelimb for group 15, and by intratumoral injection for other groups. Group 16 was administered sequentially (the first dose was aprobiotic semi-fluid-like component/cytotoxic drug/weak local acting compound, and the last dose was inactivated probiotics), while the other groups were administered with the same drug twice. On days 7 and 21 after the last dose, the tumor volumes of each group were measured (V7d, V21d), and the relative tumor proliferation rates (R7d, R21d) were calculated relative to the negative control group, respectively, so that the short-term therapeutic effectiveness (100%−R7d) and the medium- and long-term therapeutic effectiveness (100%−R21d) could be calculated, respectively.
# [3] = test system: breast cancer 4T1 cells; assay: Tumor inhibition rate r′10d, r′30d in 4T1 tumor-bearing BALB/c mice (Example 12, Table 18, series A); assay type: in vivo; conditions: series A modeled mice, intratumoral injection twice at 3-day interval, 50 ul/mouse/time; for Series A r′10d (tumor inhibition rate): 10th day after 1st administration; for Series A r′30d (tumor inhibition rate): 30th day after 1st administration
# Protocol: (§2) BALB/c mice were used as experimental subjects, in which modeled animals were used as series A and unmodeled animals as series B. Breast cancer 4T1 cells were use as modeling cells for modeled animals. 0.25×10^5 cells/animal were injected into the right axilla subcutaneously for transplantation tumor modeling, and the average tumor volume of successfully modeled nude mice was 173.6 mm^3. The modeled animals were randomly divided into 18 groups, with 10 animals in each group, and the drugs according to Table 18 was administered via intratumoral injection. BALB/c mice were additionally taken as experimental subjects without modeling, and randomly divided into 18 groups, with 10 animals in each group, the drugs according to Table 18 was administered via intramuscular injection into the right hind thigh. All the study drugs comprising probiotic components were formulated as aqueous formulations according to the preparation method of Example 1, and the other drugs were formulated as aqueous solutions according to the existing well-known methods. Each group was administered twice at an interval of 3 days, and the dosage was 50 ul/mouse/time.
# On the 30th day after the first administration, each group of series A and each group of series B were subcutaneous cell transplantation of 1×10^5 breast cancer 4T1 cells/mouse and 0.2×10^5 fibroblast 3T3 cells/mouse respectively to left anterior axilla and left posterior axilla. The tumor incidence rates of 4T1 cell transplantation (S4T1) and of 3T3 cell transplantation (S3T3) in each group were observed on the 10th day after the cell transplantation, wherein the tumor incidence rate S=(number of tumor-bearing animals/number of cell transplanted animals)×100%.
# [4] = test system: breast cancer 4T1 cells; assay: Tumor incidence rate after 4T1 cell transplantation (S4T1) on day 30 (Example 12, Table 18); assay type: in vivo, BALB/c mice; conditions: cells transplanted on 30th day, observed 10th day after transplantation; for Series A S4T1 (tumor incidence rate of 4T1 cell transplantation): series A modeled mice, intratumoral injection; for Series B S4T1 (tumor incidence rate of 4T1 cell transplantation): series B unmodeled mice, intramuscular injection into right hind thigh
# Protocol: as §2, with “Breast cancer 4T1 cells were use as modeling cells for modeled animals. 0.25×10^5 cells/animal were injected into the right axilla subcutaneously for transplantation tumor modeling, and the average tumor volume of successfully modeled nude mice was 173.6 mm^3.” left out
# [5] = test system: fibroblast 3T3 cells; assay: Tumor incidence rate after 3T3 cell transplantation (S3T3) on day 30 (Example 12, Table 18); assay type: in vivo, BALB/c mice; conditions: cells transplanted on 30th day, observed 10th day after transplantation; for Series A S3T3 (tumor incidence rate of 3T3 cell transplantation): series A modeled mice, intratumoral injection; for Series B S3T3 (tumor incidence rate of 3T3 cell transplantation): series B unmodeled mice, intramuscular injection into right hind thigh
# Protocol: as §2, with “Breast cancer 4T1 cells were use as modeling cells for modeled animals. 0.25×10^5 cells/animal were injected into the right axilla subcutaneously for transplantation tumor modeling, and the average tumor volume of successfully modeled nude mice was 173.6 mm^3.” left out
SMILES,tumor inhibition rate rA [1] [%],tumor inhibition rate rB [1] [%],relative tumor proliferation rate R7 d [2] [%],relative tumor proliferation rate R21 d [2] [%],Series A r′10d (tumor inhibition rate) [3] [%],Series A r′30d (tumor inhibition rate) [3] [%],Series A S4T1 (tumor incidence rate of 4T1 cell transplantation) [4] [%],Series B S4T1 (tumor incidence rate of 4T1 cell transplantation) [4] [%],Series A S3T3 (tumor incidence rate of 3T3 cell transplantation) [5] [%],Series B S3T3 (tumor incidence rate of 3T3 cell transplantation) [5] [%]
"O=c1[nH]cc(F)c(=O)[nH]1 [1% 5-fluorouracil, 5-fluorouracil]",38.1,44.1,51,93,38.5,6.1,100,100,100,100
"CCO [75% ethanol, ethanol]",2.8,21.3,47,95,42.1,3.2,100,100,100,100
